{"source": "patent US6391881B1", "about": "“Thiourea derivatives of dihydropyridine NPY antagonists” (Bristol-Myers Squibb Company, priority 2000, dated 2002)", "origin": "cited, not measured here", "key": {"[1]": {"system": "NPY-induced increase in intracellular Ca++ in SK-N-MG cells"}, "[2]": {"system": "NPY-induced pressor response", "details": "pithed rat"}, "[3]": {"target": "T1, human neuroblastoma cells (SK-N-MC) (Homo sapiens, UniProt P25929)", "T1 construct": "displaces I-125 Bolton-Hunter labeled NPY in human neuroblastoma cells (SK-N-MC); host or cells: SK-N-MC human neuroblastoma cells (endogenous receptor; no transfection mentioned)", "T1 sequence (P25929 1-384)": "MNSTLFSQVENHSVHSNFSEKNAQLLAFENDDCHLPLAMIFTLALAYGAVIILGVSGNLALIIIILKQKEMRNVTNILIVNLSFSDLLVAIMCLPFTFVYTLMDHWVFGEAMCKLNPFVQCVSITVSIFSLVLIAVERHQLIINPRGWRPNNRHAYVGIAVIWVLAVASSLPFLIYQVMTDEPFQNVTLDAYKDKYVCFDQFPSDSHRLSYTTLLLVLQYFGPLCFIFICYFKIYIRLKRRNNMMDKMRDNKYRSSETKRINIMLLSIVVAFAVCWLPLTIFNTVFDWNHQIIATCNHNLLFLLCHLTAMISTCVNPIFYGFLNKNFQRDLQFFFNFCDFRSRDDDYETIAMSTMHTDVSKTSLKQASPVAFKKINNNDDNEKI"}, "[4]": {"system": "NPY-induced Ca++ entry in HEL cells"}, "[5]": {"system": "NPY-induced contractions in guinea pig basilar artery"}, "[6]": {"system": "NPY-related increases in diastolic blood pressure", "details": "anesthetized guinea pig model"}, "[7]": {"target": "T2, human neuroblastoma cells (Homo sapiens, UniProt P25929)", "T2 construct": "displacing I-125 labeled NPY and PYY in human neuroblastoma cells", "T2 sequence (P25929 1-384)": "T1 sequence (P25929 1-384)"}}, "data": [{"compound": "NC(N)=NCCC[C@@H](NC(=O)C(c1ccccc1)c1ccccc1)C(=O)NCc1ccc(O)cc1", "note": "[BIBP 3226]", "values": [{"measurement": "antagonism of NPY-induced increase in intracellular Ca++ (in words)", "setting": "[1]", "result": "antagonized"}, {"measurement": "antagonism of NPY-induced pressor response (in words)", "setting": "[2]", "result": "antagonizing"}, {"measurement": "displacement of I-125 Bolton-Hunter labeled NPY (in words)", "setting": "[3]", "result": "displaces"}]}, {"compound": "N=C(NCCCc1cnc[nH]1)NCCC(c1cc(F)cc(F)c1)c1ccccn1", "note": "(centres unmarked) [He 90481]", "values": [{"measurement": "antagonism of NPY-induced Ca++ entry (in words)", "setting": "[4]", "result": "weak but competitive antagonist"}, {"measurement": "pA2, antagonism of NPY-induced Ca++ entry", "setting": "[4]", "result": 4.43}]}, {"compound": "O=P(O)(O)OC1[C@H](OP(=O)(O)O)[C@H](O)C(O)[C@H](O)[C@H]1OP(=O)(O)O", "note": "(stereo partly drawn) [D-Myo-inositol-1,2,6-triphosphate]", "values": [{"measurement": "antagonism of NPY-induced contractions (in words)", "setting": "[5]", "result": "potent but non-competitive antagonist"}]}, {"compound": "CN(C)CC1CCC(CN=C(N)c2ccc(C[C@@H](NC(=O)[C@@H](Cc3ccccc3)NS(=O)(=O)c3ccc4ccccc4c3)C(=O)N3CCCC3)cc2)CC1", "note": "(some centres unmarked) [SR 120819A]", "values": [{"measurement": "antagonism of NPY-related increases in diastolic blood pressure (in words)", "setting": "[6]", "result": "antagonized"}, {"measurement": "displacement of I-125 labeled NPY and PYY (in words)", "setting": "[7]", "result": "displacing"}]}]}
